The text below walks through data of US20210353721A1, “METHODS AND COMPOSITIONS RELATING TO INHIBITING CARDIOVASCULAR CALCIFICATION VIA ANNEXIN A1” (THE BRIGHAM AND WOMEN'S HOSPITAL, INC., priority 2018, published 2021).

Data set [1] concerns the target T1, human ANXA1 (Homo sapiens, UniProt P04083).
T1 construct: purchased R&D Systems
T1 sequence (P04083 1-346): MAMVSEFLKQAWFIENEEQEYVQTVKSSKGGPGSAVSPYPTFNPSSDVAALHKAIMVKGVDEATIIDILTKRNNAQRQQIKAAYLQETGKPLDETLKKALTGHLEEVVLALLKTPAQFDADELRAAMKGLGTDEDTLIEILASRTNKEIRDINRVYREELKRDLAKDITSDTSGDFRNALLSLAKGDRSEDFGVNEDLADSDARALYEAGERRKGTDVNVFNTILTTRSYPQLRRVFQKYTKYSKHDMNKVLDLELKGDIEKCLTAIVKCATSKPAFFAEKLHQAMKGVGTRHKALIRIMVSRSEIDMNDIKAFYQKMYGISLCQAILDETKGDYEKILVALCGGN
Description: Vesicle tethering assay (turbidity of extrusion generated phosphatidylserine vesicles). It is filed as biochemical. The procedure: Vesicle Tethering Assay. Vesicle tethering was assessed by using a previously reported protocol (19) with modifications to adjust to a 96-well plate reader format. Large unilaminar vesicles of ˜100 nm in diameter were generated by filter extrusion. Briefly, 2.5 mg of phosphatidylserine (Avanti Polar Lipids) was solubilized in 1 mL of buffer containing: 10 mmol/L Hepes (Sigma, St. Louis, Mo.), 100 mmol/L NaCl (Sigma), 100 μmon ethylenediaminetetraacetic acid (Boston BioProducts, Ashland, Mass.), pH 6. The lipid mixture was run through an extruder containing 0.1 μm polycarbonate membranes (Avanti Polar Lipids) ten times, during which point the lipid mixture went from cloudy to clear in appearance. Vesicles were assessed for correct size and abundance prior to use by NanoSight nanoparticle tracking analysis. […] 27 jd of extrusion generated vesicles were added to each well and vesicle aggregation was measured at wavelength 350 on a SpectraMax M5 96-well plate reader (Molecular Devices, San Jose, Calif.). For calcium chelation, 0.48 mmol/L ethylenediaminetetraacetic acid was incubated with 1 μg human ANXA1 protein for five minutes at room temperature prior to adding the extrusion generated vesicles, after which the reaction was carried out for 20 minutes and then aggregation was determined on a plate reader. […]

Data set [2] addresses ANXA1 on human SMC-derived EVs (Homo sapiens, UniProt P04083). The settings on record: 0.48 mmol/L EDTA in PBS, 30 minutes at 37° C.
Description: (§1) ANXA1 EVs surface localization was assessed by isolating human SMC and VIC EVs. 10 mL of conditioned media was centrifuged at 100,000 g for 40 minutes, and the resulting EVs pellet was resuspended in PBS or PBS containing 0.48 mmol/L EDTA and incubated for 30 minutes at 37° C. EVs were pelleted a second time at 100,000 g for 40 minutes. The supernatant was collected, and the pellet was resuspended in 100 μl PBS. Samples were incubated with 6×-loading buffer (Boston Bioproducts) and boiled for 10 minutes, prior to analysis by western blot. ANXA1 released into the supernatant was assessed as being on the surface of EVs.
Data set [3] addresses ANXA1 on human VIC-derived EVs (Homo sapiens, UniProt P04083). The following applies: 0.48 mmol/L EDTA in PBS, 30 minutes at 37° C.
Description: as §1
Data set [4] deals with dynamin-related protein 1 (DRP1) (Homo sapiens, UniProt O00429). The settings on record: OM; cited from earlier work.
Data set [5] deals with ANXA1 loading on EVs. Put plainly: ANXA1 loading on EVs derived from SMCs treated with mdivi-1 (western blot). It is filed as cell-based. The following applies: human SMCs in OM, 14 days. As to the method:
Primary Cell Culture. Primary human coronary artery SMCs were obtained from Promocell (Heidelberg, Germany) and expanded in SMC Growth Medium 2 (Promocell) supplemented with epidermal growth factor (0.5 ng/mL), insulin (5 μg/mL) basic fibroblast growth factor- B (2 ng/mL), and 5% fetal bovine serum. Primary human VICs were obtained from human aortic valve tissue using collagenase digestion (28, 30). Tissue-derived SMCs were confirmed as alpha smooth muscle actin-positive by FACS (30). Tissue-derived VICs were confirmed as vimentin positive by immunohistochemistry (28). Cells were cultured at 37° C. (5% CO2, 90% humidity) and used between passages 1 and 5. […] Tissue non-specific alkaline phosphatase (TNAP) activity was analyzed after 14 days in culture using whole cell lysates and the TNAP enzyme activity assay (BioVision, Inc., Milpitas, Calif.), according to the manufacturer's protocol. Calcification was analyzed in cells after 21 days in culture by incubating culture wells with OsteoSense680 (1:100), near-infrared based bisphosphonate calcium tracer, for 24 hours at 37° C. […]
RNA and Protein Analysis. […] ANXA1 EVs surface localization was assessed by isolating human SMC and VIC EVs. […]
On the technique in general: In western blotting, separated proteins are transferred to a membrane and probed.

A short description of data set [6]: Annexin vesicle binding (confocal, swelling generated phosphatidylserine vesicles). The following applies: 2 μg ANXA1-GFP, 1 mmol/L CaCl2, five minutes. As to the method: Annexin Vesicle Binding. Giant unilamellar vesicles were generated using a previously described protocol (50) with some modifications. Briefly, for the confocal-based ANXA1 vesicle binding assay, 12 mm diameter cover glass circles were coated with 5% polyvinyl alcohol (Millipore, Burlington, Mass.) in water and left to dry overnight. Dried slides were then coated with 20 μl of 10 mg/mL phosphatidylserine (Avanti Polar Lipids, Alabaster, Ala.) in chloroform containing 0 1% DiR′; DiIC18(7) 1,1′-Dioctadecyl-3,3,3′,3′-Tetramethylindotricarbocyanine Iodide) (Fisher Scientific) and dried under vacuum. 1 mL of tris buffer (pH 6) was added to cover the coated cover glass circle in a 24-well plate, and giant unilaminar vesicles were formed by swelling at room temperature for 1 hour. Vesicles were detached from the cover glass by gently tapping the plate directly beneath the slide. ANXA1 tagged green fluorescent protein (ANXA1-GFP) was obtained by transfecting HEK-293 cells (ATCC, Manassas, Va.) with human ANXA1-GFP plasmid (OriGene, Rockville, Md., #RG201569). […] GFP laser settings were adjusted such that no GFP signal was detected in samples without ANXA1-GFP added.

dynamin-related protein 1 (DRP1), sequence (O00429 whole entry): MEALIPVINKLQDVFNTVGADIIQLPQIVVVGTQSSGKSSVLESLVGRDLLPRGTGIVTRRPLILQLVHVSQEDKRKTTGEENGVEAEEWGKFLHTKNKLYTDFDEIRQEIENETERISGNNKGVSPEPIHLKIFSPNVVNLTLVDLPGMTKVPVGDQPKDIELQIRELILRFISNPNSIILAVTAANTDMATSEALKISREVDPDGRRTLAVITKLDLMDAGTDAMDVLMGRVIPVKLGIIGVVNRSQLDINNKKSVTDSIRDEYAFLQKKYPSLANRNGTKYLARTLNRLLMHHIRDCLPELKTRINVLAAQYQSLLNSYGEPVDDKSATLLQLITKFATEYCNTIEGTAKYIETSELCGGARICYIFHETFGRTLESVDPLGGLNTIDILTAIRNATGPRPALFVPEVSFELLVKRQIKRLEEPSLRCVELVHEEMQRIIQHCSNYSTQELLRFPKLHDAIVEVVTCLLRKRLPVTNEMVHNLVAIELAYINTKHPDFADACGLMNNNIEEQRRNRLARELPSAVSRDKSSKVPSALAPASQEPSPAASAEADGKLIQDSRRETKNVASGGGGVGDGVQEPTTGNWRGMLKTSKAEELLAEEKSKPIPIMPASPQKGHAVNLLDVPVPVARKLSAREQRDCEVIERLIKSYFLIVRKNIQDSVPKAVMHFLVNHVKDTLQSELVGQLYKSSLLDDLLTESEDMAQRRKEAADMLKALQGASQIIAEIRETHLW

Take `O=C(O)CN(CCN(CC(=O)O)CC(=O)O)CC(=O)O` [EDTA, ethylenediaminetetraacetic acid]: the ANXA1-mediated vesicle aggregation entry in data set [1] (0.48 mmol/L EDTA, 1 μg human ANXA1 protein, 20 minutes) is reported as “attenuated”. Also, the “ANXA1 release from EVs” value in data set [2] and in data set [3] was “increased” each time.
Regarding `COc1cc(-n2c(S)nc3ccccc3c2=O)c(Cl)cc1Cl` [mdivi-1], in data set [4], the “SMC and VIC calcification” value was “suppressed”; the intracellular calcium storage entry was “increased”; the mitochondrial fragmentation result was “reduced”. Also, the “increased ANXA1 loading on EVs in OM” value in data set [5] is given as “suppressed”.

B1: GFP-tagged ANXA1: green fluorescent protein tagged human ANXA1 immunopurified from transfected HEK-293 cells (protein)
chain: MAMVSEFLKQAWFIENEEQEYVQTVKSSKGGPGSAVSPYPTFNPSSDVAALHKAIMVKGVDEATIIDILTKRNNAQRQQIKAAYLQETGKPLDETLKKALTGHLEEVVLALLKTPAQFDADELRAAMKGLGTDEDTLIEILASRTNKEIRDINRVYREELKRDLAKDITSDTSGDFRNALLSLAKGDRSEDFGVNEDLADSDARALYEAGERRKGTDVNVFNTILTTRSYPQLRRVFQKYTKYSKHDMNKVLDLELKGDIEKCLTAIVKCATSKPAFFAEKLHQAMKGVGTRHKALIRIMVSRSEIDMNDIKAFYQKMYGISLCQAILDETKGDYEKILVALCGGN
modifications: left off: large carriers
notes: green fluorescent protein tagged human ANXA1 immunopurified from transfected HEK-293 cells
In the case of B1, the “ANXA1 localization on tethered vesicles” value in data set [6] is “enriched ANXA1 at tethered vesicle membrane contact sites”.

B2: human ANXA1 protein: recombinant human ANXA1 (R&D Systems) (protein)
chain: AMVSEFLKQAWFIENEEQEYVQTVKSSKGGPGSAVSPYPTFNPSSDVAALHKAIMVKGVDEATIIDILTKRNNAQRQQIKAAYLQETGKPLDETLKKALTGHLEEVVLALLKTPAQFDADELRAAMKGLGTDEDTLIEILASRTNKEIRDINRVYREELKRDLAKDITSDTSGDFRNALLSLAKGDRSEDFGVNEDLADSDARALYEAGERRKGTDVNVFNTILTTRSYPQLRRVFQKYTKYSKHDMNKVLDLELKGDIEKCLTAIVKCATSKPAFFAEKLHQAMKGVGTRHKALIRIMVSRSEIDMNDIKAFYQKMYGISLCQAILDETKGDYEKILVALCGGN
For B2, the “vesicle aggregation (turbidity)” value in data set [1] (0 up to 5 μg recombinant ANXA1, 1 mmol/L CaCl2, ~150 nm phosphatidylserine vesicles) was “time- and concentration-dependent vesicle aggregation”.
